Structures can show the parent of a compound that is named as a salt. Where two headings read alike, the source gives them in different places.
Legend:
S1P1 [1] = target: T1, S1P1 (Homo sapiens, UniProt P21453); experiment: S1P1 internalization assay in S1P1-U2OS cells (cell imaging); assay type: cell-based; settings: U2OS cells expressing S1P1-EGFP, 1 hour
Procedure: Cellular functional assays: Internalization of Sphingosine-1-phosphate receptor 1 (S1P1) in a human Cell line (U2OS) in a 384-well format using a Cell Imaging analysis.
The S1P1 internalization assay was performed in 384 well plates (Corning® 384 black with clear bottom 3712) using S1P1-U2OS cells from Biolmage (C039A), a human epithelial cell line (Human Bone Osteosarcoma Epithelial Cells). These cells expressed the human S1P1 Receptor fused to the green fluorescent protein (EGFP). A standard CMV promoter (cytomegalovirus promoter) controls the expression of S1P1-EGFP and continuous expression was maintained by addition of geneticin to the culture medium.
S1P1Receptor desensitization induced the internalization of the membrane-localized S1P1-EGFP fusion protein to endosomes, which can be monitored by cell imaging analysis. The cells are plated in low serum medium (Dulbecco's Modified Eagle Medium (DMEM) with Glutamax-1 and high glucose, 1% Penicillin/Streptomycin, 1% Fetal Calf Serum (FCS), 0.5 mg/ml Geneticin) overnight.
The next day, S1P1-U2OS cells are incubated in 20 μl serum free medium (DMEM with Glutamax-1 and high glucose, 0.1% of fatty-acid free Bovin Serum Albumin (BSA), 10 mM, N′-2-Hydroxyethylpiperazine-N′-2 ethanesulphonic acid (HEPES) 1M) for 2 hours at 37° C./5% CO2. The cells are then treated with 4 μl compounds/agonists (6×/3% DMSO) for a total volume of 24 μl, and plates are incubated for 1 hour at 37° C./5% CO2.
S1P1-U2OS cells are fixed with 25 μl Paraformaldehyde 8% and stained with Hoechst 33345 dye (1:1000) for 20 minutes.
They were then washed 3 times with Phosphate Buffered Saline (PBS) and plates are sealed. The internalization of the receptor S1P1-EGFP is measured on Cellomics by calculating the “spot count per object” (“object” corresponds to nuclear and “spot” corresponds to S1P1-EGFP receptor). Internalization data were observed thanks to vHCS View and analyzed using Genedata® software.
Target sequence in this assay (P21453 whole entry): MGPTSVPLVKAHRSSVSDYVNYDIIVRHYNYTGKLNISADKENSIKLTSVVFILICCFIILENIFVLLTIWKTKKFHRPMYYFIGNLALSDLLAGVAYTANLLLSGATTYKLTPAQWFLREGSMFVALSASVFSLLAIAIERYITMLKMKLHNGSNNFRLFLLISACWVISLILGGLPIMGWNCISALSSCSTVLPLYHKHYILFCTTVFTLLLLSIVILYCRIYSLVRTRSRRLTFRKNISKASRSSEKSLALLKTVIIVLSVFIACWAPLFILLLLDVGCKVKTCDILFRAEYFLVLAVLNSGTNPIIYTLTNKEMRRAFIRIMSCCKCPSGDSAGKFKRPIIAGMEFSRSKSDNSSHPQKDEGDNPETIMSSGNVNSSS

[2] = Pharmacokinetics (PK parameters from lymphopenia, mouse); assay type: in vivo; settings: PK-PD (30 mpk)
Procedure: (§1) Female C57BL/6 mice (Elevage Janvier) (8 week old) receive S1P agonists by oral route. Blood is sampled in heparinized (100 IU/kg, ip) mice by intracardiac or retroorbital puncture under isoflurane anesthesia 2 to 120 hrs after drug treatment. The white blood cells (lymphocytes and neutrophils) are counted using a Beckman/Coulter counter. The quality of blood sampling is assessed by counting erythocytes and platelets.
The pharmacoinetic properties of compound of example 70, N-(2-fluoro-4-{5-[2′-methyl-2-(trifluoromethyl)biphenyl-4-yl]-1,2,4-oxadiazol-3-yl}benzyl)-N-methylglycine, are the following: […]

S1P3 = S1P3 (Homo sapiens, UniProt Q99500); experiment: Receptor binding assay, [33P]sphingosine 1-phosphate competition (SPA), S1P3
S1P3, sequence (Q99500 whole entry, species assumed): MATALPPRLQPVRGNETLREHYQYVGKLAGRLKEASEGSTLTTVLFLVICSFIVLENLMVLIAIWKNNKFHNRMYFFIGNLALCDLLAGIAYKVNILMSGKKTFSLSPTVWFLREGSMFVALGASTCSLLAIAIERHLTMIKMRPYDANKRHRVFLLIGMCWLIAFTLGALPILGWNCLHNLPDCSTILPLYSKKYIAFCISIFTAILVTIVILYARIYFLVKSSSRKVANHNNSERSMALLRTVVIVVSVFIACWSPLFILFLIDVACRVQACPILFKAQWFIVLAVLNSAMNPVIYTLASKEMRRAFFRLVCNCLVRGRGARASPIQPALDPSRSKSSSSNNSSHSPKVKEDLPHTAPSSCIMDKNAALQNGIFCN
Procedure: (§2) Membranes were prepared from CHO cells expressing S1P1 or S1P3 for use in ligand and […] binding studies. Cells were suspended in 50 mM TRIS, pH 7.4, 2 mM EDTA, 250 mM Sucrose (buffer A) and 1× Complete protease inhibitor cocktail (Roche), and disrupted at 4° C. by N2 decompression using a cell disruption bomb (Parr Instrument). Following centrifugation at 1000 RPM for 10 min at 4° C., the supernatant was diluted (2×) in buffer A and centrifuged again at 19000 RPM for 75 min at 4° C. The pellet was then suspended in 10 mM HEPES, pH 7.4, 1 mM EDTA, 250 mM Sucrose (Buffer B), and 1× Complete EDTA-free protease inhibitor cocktail and homogenized using a potter. Membranes were flash frozen in liquid N2 and stored at −80° C.
[33P]sphingosine 1-phosphate (3000 Ci/mmol; American Radiolabeled Chemicals, Inc.) was added to test compounds in 20% DMSO by competition. Membranes and WGA SPA beads (GE Healthcare) were added to give a final volume of 100 μl in 96-well plates or 50 μl in 384-well plates with assay concentrations of 30 pM or 15 pM [33P]sphingosine 1-phosphate (respectively for S1P1 or S1P3), 50 mM HEPES, pH 7.5, 5 mM MgCl2, 100 mM NaCl, 0.4% fatty acid-free BSA, 1-5 μg/well of proteins in 96-well plates vs 0.6-1 μg/well of proteins in 384-well plates and 100 μg/well of WGA SPA beads in 96-well plates vs 75 μg/well of WGA SPA beads in 384-well plates. Binding was performed for 60 min at RT on a shaker and bound radioactivity was measured on a PerkinElmer 1450 MicroBeta counter. Triplicate samples were averaged and normalized as percentage of inhibition relative to total binding (only DMSO in well) and non-specific binding (1000-fold excess of unlabeled S1P). Binding data were analyzed using the GraphPad Prism program or Genedata software.

S1P1 [3] = target: T1, S1P1; experiment: Receptor binding assay, [33P]sphingosine 1-phosphate competition (SPA), S1P1
Procedure: Cells were suspended in 50 mM TRIS, pH 7.4, 2 mM EDTA, 250 mM Sucrose (buffer A) and 1× Complete protease inhibitor cocktail (Roche), and disrupted at 4° C. by N2 decompression using a cell disruption bomb (Parr Instrument). […] The pellet was then suspended in 10 mM HEPES, pH 7.4, 1 mM EDTA, 250 mM Sucrose (Buffer B), and 1× Complete EDTA-free protease inhibitor cocktail and homogenized using a potter. Membranes were flash frozen in liquid N2 and stored at −80° C.
[33P]sphingosine 1-phosphate (3000 Ci/mmol; American Radiolabeled Chemicals, Inc.) was added to test compounds in 20% DMSO by competition. […] Triplicate samples were averaged and normalized as percentage of inhibition relative to total binding (only DMSO in well) and non-specific binding (1000-fold excess of unlabeled S1P). Binding data were analyzed using the GraphPad Prism program or Genedata software.
Target sequence in this assay (P21453 whole entry, species assumed): as the sequence (P21453 whole entry) above

lymphocytes = experiment: Model of S1P agonists-induced lymphopenia in mice; assay type: in vivo; settings: oral route
Procedure: as §1

S1P1 [4] = target: T1, S1P1; experiment: 35S-GTPγS binding on membranes from CHO cells expressing S1P1; assay type: biochemical; settings: read-out: S1P1/GTPG EC50
Procedure: as §2
Target sequence in this assay (P21453 whole entry, species assumed): as the sequence (P21453 whole entry) above
Membranes (1 to 10 μg protein) prepared as described above, were incubated in 96-well Scintiplates (PerkinElmer) with test compounds diluted in DMSO, in 140 μl of 20 mM HEPES, pH 7.4, 10 mM MgCl2, 2 μg/well Saponin, 0.2% fatty acid free BSA (Assay buffer), 125 mM NaCl and 1.5 μM GDP. […] Supernatant was discarded and membrane bound radioactivity was measured on a PerkinElmer 1450 MicroBeta counter. Triplicate samples were averaged and expressed as % response relative to S1P activation in absence of compound (n=2).
The “potency” or the “activity” of the compounds is determined by the EC50 values as evaluated in the above described 35S-GTPγS binding assay.

[5] = female, C57BL/6, plasma, po, 30 mg/kg
[6] = 96 well-plate, read-out: S1P3 binding Ki (M) (96 well-plate)
[7] = 384 well-plate, read-out: S1P3 binding Ki (M) (384 well-plate)
[8] = 96 well-plate, read-out: S1P1 binding Ki (M) (96 well-plate)
[9] = 384 well-plate, read-out: S1P1 binding Ki (M) (384 well-plate)

SMILES | EC50 (S1P1 [1]) [nM] | Ki (S1P3; [6]) [M] | Ki (S1P3; [7]) [M] | Ki (S1P1 [3]; [9]) [M] | melting point [°C] | further results
Cc1ccccc1-c1ccc(-c2nc(-c3ccc(CN(C)CC(=O)O)c(F)c3)no2)cc1C(F)(F)F [Example 70, N-(2-fluoro-4-{5-[2′-methyl-2-(trifluoromethyl)biphenyl-4-yl]-1,2,4-oxadiazol-3-yl}benzyl)-N-methylglycine] | 13 | 4.43e-07 | 4.11e-07 | 2.19e-09 |  | Lymphe node/plasma ratio: 24 h ([2]; 24 h): 4.4; Lymphe node/plasma ratio: 48 h ([2]; 48 h): 4.0; Kp ([2]; female, C57BL/6, brain, oral, 30 mg/kg, ratio of AUCZ, read-out: Brain/plasma ratio: AUCZ (h * ng/ml)): 2.4; AUC(0-inf) [2, 5]: 104 µg·h/mL; CL/F [2, 5]: 5 mL/min/kg; Cmax [2, 5]: 8780 ng/mL; Tmax [2, 5]: 2 h; half-life [2, 5]: 7.5 h; Ki (S1P1 [3]; [8]): 6.81e-10 M; % of lymphopenia in mouse at 48 h (lymphocytes): 72 +/− 8%
Cc1cc(-c2nc(-c3cc(F)cc(CN(C)CC(=O)O)c3)no2)ccc1-c1ccccc1C(F)(F)F (as salt: hydrochloride) [Example 104, N-(3-fluoro-5-{5-[2-methyl-2′-(trifluoromethyl)biphenyl-4-yl]-1,2,4-oxadiazol-3-yl}benzyl)-N-methylglycine] |  |  |  |  | 207 | 
CN(CC(=O)O)Cc1cc(F)cc(-c2noc(-c3ccc(-c4ccccc4C(F)(F)F)c(Cl)c3)n2)c1 (as salt: hydrochloride) [Example 136, N-(3-{5-[2-chloro-2′-(trifluoromethyl)biphenyl-4-yl]-1,2,4-oxadiazol-3-yl}-5-fluorobenzyl)-N-methylglycine] |  |  |  |  | 212 | 
Cc1ccccc1-c1ccc(-c2nc(-c3ccc(CN(C)CC(=O)O)c(F)c3)no2)cc1C(F)(F)F (as salt: hydrochloride) [Example 70, N-(2-fluoro-4-{5-[2′-methyl-2-(trifluoromethyl)biphenyl-4-yl]-1,2,4-oxadiazol-3-yl}benzyl)-N-methylglycine] |  |  |  |  | 183 | 
Cc1ccccc1-c1ccc(-c2nc(-c3cccc(CN(C)CC(=O)O)c3)no2)cc1C(F)(F)F [Example 14, N-methyl-N-(3-{5-[2′-methyl-2-(trifluoromethyl)biphenyl-4-yl]-1,2,4-oxadiazol-3-yl}benzyl)glycine] | 8.75 | 2.36e-07 | 1.68e-07 | 1.93e-09 |  | EC50 (S1P1 [4]): 1.24 nM; Ki (S1P1 [3]; [8]): 4.47e-10 M
CCOc1cc(-c2nc(-c3ccc(CN(C)CC(=O)O)cc3)no2)ccc1-c1ccccc1C(F)(F)F (as salt: hydrochloride) [Example 115, N-(4-{5-[2-ethoxy-2′-(trifluoromethyl)biphenyl-4-yl]-1,2,4-oxadiazol-3-yl}benzyl)-N-methylglycine] |  |  |  |  | 210 | 
COCc1cc(-c2nc(-c3cccc(CN(C)CC(=O)O)c3)no2)ccc1-c1ccccc1C(F)(F)F (as salt: hydrochloride) [Example 49, N-(3-{5-[2-(methoxymethyl)-2′-(trifluoromethyl)biphenyl-4-yl]-1,2,4-oxadiazol-3-yl}benzyl)-N-methylglycine] |  |  |  |  | 207 | 
Cc1ccccc1-c1ccc(-c2nc(-c3cccc(CN(C)CC(=O)O)c3F)no2)cc1C(F)(F)F [Example 112, N-(2-fluoro-3-{5-[2′-methyl-2-(trifluoromethyl)biphenyl-4-yl]-1,2,4-oxadiazol-3-yl}benzyl)-N-methylglycine] | 6.26 | 1.49e-07 | 1.92e-07 | 4.95e-10 |  | 

— patent US8802704B2, “Oxadiazole derivatives” (Merck Serono SA, priority 2009, dated 2014)
